From ChEMBL document CHEMBL3877274, “Preparation of novel ring-A fused azole derivatives of betulin and evaluation of their cytotoxicity” (Eur J Med Chem, 2017)
pIC50: −log10 of the molar value. Activity calls are given as the source filed them. The rule behind the calls is not given here.

Key:
[1] = Cytotoxicity against human TE32 cells measured after 72 hrs by MTT assay; format: functional, cell-based; conditions: RD
[2] = Cytotoxicity against human A549 cells measured after 72 hrs by MTT assay; format: functional, cell-based; conditions: A549, 72 h
[3] = Cytotoxicity against human HEK293 cells measured after 72 hrs by MTT assay; format: toxicity, cell-based
[4] = Cytotoxicity against human MS cells measured after 72 hrs by MTT assay; format: functional, cell-based
[5] = Cytotoxicity against human Hep2 cells measured after 72 hrs by MTT assay; format: functional, cell-based; conditions: HEp-2, 72 h
[6] = Cytotoxicity against human HCT116 cells measured after 72 hrs by MTT assay; format: functional, cell-based; conditions: HCT-116, 72 h
[7] = tested on: HCT-116; test: Induction of apoptosis in human HCT116 cells assessed as late apoptotic cells at 6.7 uM measured after 18 hrs by Annexin-V FITC/propidium iodide staining based flow cytometry (reference value: 1.13%); format: functional
[8] = tested on: HCT-116; test: Induction of apoptosis in human HCT116 cells assessed as necrotic cells at 6.7 uM measured after 18 hrs by Annexin-V FITC/propidium iodide staining based flow cytometry (reference value: 2.12%); format: functional
[9] = tested on: HCT-116; test: Induction of apoptosis in human HCT116 cells assessed as mitochondrial membrane permeability loss by measuring rhodamine 123 accumulation at 6.7 uM measured after 18 hrs by fluorescence inverted microscopic analysis; format: functional, cell-based
[10] = tested on: HCT-116; test: Induction of apoptosis in human HCT116 cells assessed as viable cells at 6.7 uM measured after 18 hrs by Annexin-V FITC/propidium iodide staining based flow cytometry (reference value: 92.83%); format: functional; conditions: HCT-116, 18 h, read-out: Activity
[11] = tested on: HCT-116; test: Induction of apoptosis in human HCT116 cells assessed as formation of apoptotic bodies at 6.7 uM measured after 18 hrs by Hoechst 33258 staining based fluorescence inverted microscopic analysis; format: functional, cell-based
[12] = tested on: HCT-116; test: Induction of apoptosis in human HCT116 cells assessed as early apoptotic cells at 6.7 uM measured after 18 hrs by Annexin-V FITC/propidium iodide staining based flow cytometry (reference value: 3.92%); format: functional
[13] = tested on: HCT-116; test: Induction of apoptosis in human HCT116 cells assessed as appearance of half moon or crescent shape nuclei at 6.7 uM measured after 18 hrs by Hoechst 33258 staining based fluorescence inverted microscopic analysis; format: functional, cell-based
[14] = tested on: HCT-116; test: Induction of apoptosis in human HCT116 cells assessed as nuclear fragmentation at 6.7 uM measured after 18 hrs by Hoechst 33258 staining based fluorescence inverted microscopic analysis; format: functional, cell-based
[15] = tested on: HCT-116; test: Induction of apoptosis in human HCT116 cells assessed as chromatin condensation at 6.7 uM measured after 18 hrs by Hoechst 33258 staining based fluorescence inverted microscopic analysis; format: functional, cell-based
[16] = tested on: HCT-116; test: Induction of apoptosis in human HCT116 cells assessed as increase in caspase-3/7 activity at 5.7 uM measured up to 24 hrs; format: functional, cell-based
[17] = tested on: HCT-116; test: Induction of apoptosis in human HCT116 cells assessed as late apoptotic cells at 5.7 uM measured after 18 hrs by Annexin-V FITC/propidium iodide staining based flow cytometry (reference value: 1.13%); format: functional
[18] = tested on: HCT-116; test: Induction of apoptosis in human HCT116 cells assessed as increase in caspase-8 activity at 5.7 uM measured up to 24 hrs; format: functional, cell-based
[19] = Toxicity in po or ip dosed mouse administered as single dose measured after 14 days; format: organism-based; conditions: in vivo
[20] = tested on: HCT-116; test: Induction of apoptosis in human HCT116 cells assessed as appearance of half moon or crescent shape nuclei at 5.7 uM measured after 18 hrs by Hoechst 33258 staining based fluorescence inverted microscopic analysis; format: functional, cell-based
[21] = tested on: HCT-116; test: Induction of apoptosis in human HCT116 cells assessed as formation of apoptotic bodies at 5.7 uM measured after 18 hrs by Hoechst 33258 staining based fluorescence inverted microscopic analysis; format: functional, cell-based
[22] = tested on: HCT-116; test: Induction of apoptosis in human HCT116 cells assessed as necrotic cells at 5.7 uM measured after 18 hrs by Annexin-V FITC/propidium iodide staining based flow cytometry (reference value: 2.12%); format: functional
[23] = tested on: HCT-116; test: Induction of apoptosis in human HCT116 cells assessed as chromatin condensation at 5.7 uM measured after 18 hrs by Hoechst 33258 staining based fluorescence inverted microscopic analysis; format: functional, cell-based
[24] = tested on: HCT-116; test: Cytotoxicity against human HCT116 cells at 5.7 uM by MTT assay; format: functional, cell-based; conditions: TDE = time-dependent effect
[25] = tested on: HCT-116; test: Induction of apoptosis in human HCT116 cells assessed as nuclear fragmentation at 5.7 uM measured after 18 hrs by Hoechst 33258 staining based fluorescence inverted microscopic analysis; format: functional, cell-based
[26] = tested on: HCT-116; test: Induction of apoptosis in human HCT116 cells assessed as increase in cck18 level at 5.7 uM measured after 18 hrs; format: functional, cell-based
[27] = tested on: HCT-116; test: Induction of apoptosis in human HCT116 cells assessed as early apoptotic cells at 5.7 uM measured after 18 hrs by Annexin-V FITC/propidium iodide staining based flow cytometry (reference value: 3.92%); format: functional
[28] = tested on: HCT-116; test: Induction of apoptosis in human HCT116 cells assessed as viable cells at 5.7 uM measured after 18 hrs by Annexin-V FITC/propidium iodide staining based flow cytometry (reference value: 92.83%); format: functional; conditions: HCT-116, 18 h, read-out: Activity
[29] = tested on: HCT-116; test: Induction of apoptosis in human HCT116 cells assessed as mitochondrial membrane permeability loss by measuring rhodamine 123 accumulation at 5.7 uM measured after 18 hrs by fluorescence inverted microscopic analysis; format: functional, cell-based

| SMILES | pIC50 [1] | pIC50 [2] | pIC50 [4] | pIC50 [5] | pIC50 [6] | also measured |
| --- | --- | --- | --- | --- | --- | --- |
| C=C(C)[C@@H]1CC[C@]2(C(=O)O)CC[C@]3(C)[C@H](CC[C@@H]4[C@@]5(C)Cc6c(nnc(C)[n+]6[O-])C(C)(C)[C@@H]5CC[C@]43C)[C@@H]12 | < 4.00 | < 4.00 | < 4.00 | 5.82 | 5.85 | IC50 at 72 h [3]: 2.1 µM |
| CC[C@@]1(O)C(=O)OCc2c1cc1n(c2=O)Cc2cc3ccccc3nc2-1 [CAMPTOTHECIN] | 5.91 | 5.23 | 5.74 | 5.52 | 5.17 | Activity [7]: 1.6%; Activity [8]: 5.07%; Activity [9]: Active; viability at 6.7 µM [10]: 80.9%; IC50 at 72 h [3]: 0.89 µM; Activity [11]: Active; Activity [12]: 12.44%; Activity [13]: Active; Activity [14]: Active; Activity [15]: Active |
| C=C(C)[C@@H]1CC[C@]2(CO)CC[C@]3(C)[C@H](CC[C@@H]4[C@@]5(C)Cc6nn(C(C)=O)nc6C(C)(C)[C@@H]5CC[C@]43C)[C@@H]12 | 5.35 | 4.68 | 5.64 | 5.13 | 5.25 | Activity [16]: Active; Activity [17]: 1.04%; Activity [18]: Active; LD50 at 336 h [19]: > 600 mg/kg; Activity [20]: Active; Activity [21]: Active; IC50 at 72 h [3]: 12.7 µM; Activity [22]: 3.14%; Activity [23]: Active; Activity [24]: Tde; Activity [25]: Active; Activity [26]: Active; Activity [27]: 14.87%; viability at 5.7 µM [28]: 80.9%; Activity [29]: Active |
| C=C(C)[C@@H]1CC[C@]2(C=O)CC[C@]3(C)[C@H](CC[C@@H]4[C@@]5(C)Cc6nn(C(C)=O)nc6C(C)(C)[C@@H]5CC[C@]43C)[C@@H]12 | 4.34 | 4.27 | < 4.00 | < 4.00 | < 4.00 |  |
| C=C(C)[C@@H]1CC[C@]2(COC(C)=O)CC[C@]3(C)[C@H](CC[C@@H]4[C@@]5(C)C(=O)c6nc(C)oc6C(C)(C)[C@@H]5CC[C@]43C)[C@@H]12 | 4.65 | 4.62 | 4.32 | 4.40 | 4.48 |  |
| C=C(C)[C@@H]1CC[C@]2(CO)CC[C@]3(C)[C@H](CC[C@@H]4[C@@]5(C)C(=O)c6nc(C)oc6C(C)(C)[C@@H]5CC[C@]43C)[C@@H]12 | < 4.00 | 4.36 | 4.57 | 4.71 | 4.80 |  |
| C=C(C)[C@@H]1CC[C@]2(CO)CC[C@]3(C)[C@H](CC[C@@H]4[C@@]5(C)CCC(=O)C(C)(C)[C@@H]5CC[C@]43C)[C@@H]12 [BETULONE] | 4.88 | 4.48 | 4.74 | 4.65 | 4.47 |  |
| C=C(C)[C@@H]1CC[C@]2(COC(C)=O)CC[C@]3(C)[C@H](CC[C@@H]4[C@@]5(C)c6c(noc6C)C(=O)C(C)(C)[C@@H]5CC[C@]43C)[C@@H]12 | 4.83 | 5.11 | 4.85 | 4.66 | 4.72 |  |
| C=C(C)[C@@H]1CC[C@]2(CO)CC[C@]3(C)[C@H](CC[C@@H]4[C@@]5(C)C/C(=N\O)C(=O)C(C)(C)[C@@H]5CC[C@]43C)[C@@H]12 | 4.45 | 4.32 | 4.56 | < 4.00 | 5.55 |  |
| C=C(C)[C@@H]1CC[C@]2(COC(C)=O)CC[C@]3(C)[C@H](CC[C@@H]4[C@@]5(C)C=C(NC(C)=O)C(=O)C(C)(C)[C@@H]5CC[C@]43C)[C@@H]12 | 4.47 | 4.43 | < 4.00 | 4.66 | 4.08 |  |
| C=C(C)[C@@H]1CC[C@]2(COC(C)=O)CC[C@]3(C)[C@H](CC[C@@H]4[C@@]5(C)Cc6nn(C(C)=O)nc6C(C)(C)[C@@H]5CC[C@]43C)[C@@H]12 | < 4.00 | < 4.00 | < 4.00 | 4.75 | 4.65 |  |
| C=C(C)[C@@H]1CC[C@]2(CO)CC[C@]3(C)[C@H](CC[C@@H]4[C@@]5(C)Cc6c(nnc(C)[n+]6[O-])C(C)(C)[C@@H]5CC[C@]43C)[C@@H]12 | < 4.00 | < 4.00 | 4.79 | 5.35 | 4.84 |  |
| C=C(C)[C@@H]1CC[C@]2(CO)CC[C@]3(C)[C@H](CC[C@@H]4[C@@]5(C)C=C(NC(C)=O)C(=O)C(C)(C)[C@@H]5CC[C@]43C)[C@@H]12 | < 4.00 | < 4.00 | < 4.00 | 4.98 | 5.29 |  |
| C=C(C)[C@@H]1CC[C@]2(CO)CC[C@]3(C)[C@H](CC[C@@H]4[C@@]5(C)c6c(noc6C)C(=O)C(C)(C)[C@@H]5CC[C@]43C)[C@@H]12 | < 4.00 | < 4.00 | 4.61 | 4.51 | 4.53 |  |
